Measured values as given in ChEMBL document CHEMBL4715712 (Bioorg Med Chem Lett, 2016).

Legend:
[1] = target: T1, Prostaglandin G/H synthase 1 (Ovis aries, UniProt P05979); assay: Inhibition of Ovine COX-1 assessed as decrease in prostaglandin production using arachidonic acid as substrate pretreated for 15 mins followed by substrate addition and measured after 2 mins by enzyme immunoassay
T1 sequence (P05979 whole entry): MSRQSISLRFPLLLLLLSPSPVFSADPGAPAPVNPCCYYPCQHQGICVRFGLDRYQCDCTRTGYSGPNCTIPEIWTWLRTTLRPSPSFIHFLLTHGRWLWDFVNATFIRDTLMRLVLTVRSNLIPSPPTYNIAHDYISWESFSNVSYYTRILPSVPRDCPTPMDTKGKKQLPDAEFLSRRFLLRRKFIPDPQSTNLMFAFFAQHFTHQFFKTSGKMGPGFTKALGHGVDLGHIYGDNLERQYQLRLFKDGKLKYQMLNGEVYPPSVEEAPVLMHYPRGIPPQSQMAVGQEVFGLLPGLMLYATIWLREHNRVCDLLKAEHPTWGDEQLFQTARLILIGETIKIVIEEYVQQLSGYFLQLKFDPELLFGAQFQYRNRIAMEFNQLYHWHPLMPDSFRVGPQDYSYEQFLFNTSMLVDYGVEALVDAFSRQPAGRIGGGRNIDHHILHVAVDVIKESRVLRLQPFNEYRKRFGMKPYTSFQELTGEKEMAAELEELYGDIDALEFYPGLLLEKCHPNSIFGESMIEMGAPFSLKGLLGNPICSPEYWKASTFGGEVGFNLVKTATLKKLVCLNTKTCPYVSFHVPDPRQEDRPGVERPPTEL

[2] = Inhibition of soya bean 15-LOX by enzyme immunoassay; parameters: species or system Glycine max
Rattus norvegicus = assay: Antiinflammatory activity against po dosed Wistar albino rat model of carrageenan-induced foot paw edema after 3 hrs; format: functional
[3] = Ulcerogenic activity in rat assessed as average severity of ulcers at 50 mg/kg, po administered once daily for 3 consecutive days and measured after 1 hr post last dose (reference value: 0); format: toxicity, organism-based; details: in vivo
[4] = Ulcerogenic activity in rat assessed as average number of ulcers at 50 mg/kg, po administered once daily for 3 consecutive days and measured after 1 hr post last dose (reference value: 0); format: toxicity, organism-based; details: in vivo
[5] = Ulcerogenic activity in rat assessed as incidence of ulcer at 50 mg/kg, po administered once daily for 3 consecutive days and measured after 1 hr post last dose (reference value: 0%); format: toxicity, organism-based; details: in vivo
[6] = Ulcerogenic activity in rat assessed as ulcer index at 50 mg/kg, po administered once daily for 3 consecutive days and measured after 1 hr post last dose; format: toxicity, organism-based; details: in vivo, 72 h, time 3 day

| SMILES | IC50 [1] | IC50 [2] | ED50 (Rattus norvegicus) | Activity [3] | Activity [4] | Activity [5] | UI [6] |
| --- | --- | --- | --- | --- | --- | --- | --- |
| COc1cccc(/C=C/C(=O)c2sc(-c3ccccc3)nc2C)c1OC | 7.2 µM | 6.22 µM | 59 µmol/kg | 1.03 | 0.6 | 50% | 6.63 |
| COc1ccc(/C=C/C(=O)c2sc(-c3ccccc3)nc2C)cc1OC | 3.9 µM | 2.8 µM | 80 µmol/kg | 0.57 | 0.3 | 30% | 3.87 |
| COC(=O)/C(O)=C/C(=O)c1sc(-c2ccccc2)nc1C | – | – | – | 0.39 | 0.4 | 30% | 3.79 |
| COc1ccc([C@@H]2CC(c3sc(-c4ccccc4)nc3C)=NN2c2ccc(S(C)(=O)=O)cc2)cc1OC | 8.4 µM | 7.4 µM | 52 µmol/kg | 0.85 | 0.5 | 30% | 4.35 |
| COc1cccc([C@@H]2CC(c3sc(-c4ccccc4)nc3C)=NN2c2ccc(S(N)(=O)=O)cc2)c1OC | 10.2 µM | 8.9 µM | 47 µmol/kg | 0.73 | 0.2 | 20% | 2.93 |
| COc1ccc([C@@H]2CC(c3sc(-c4ccccc4)nc3C)=NN2c2ccc(S(N)(=O)=O)cc2)cc1OC | 8.6 µM | 7.4 µM | 55 µmol/kg | 0.68 | 0.4 | 30% | 4.08 |
| COc1cc([C@@H]2CC(c3sc(-c4ccccc4)nc3C)=NN2c2ccc(S(N)(=O)=O)cc2)cc(OC)c1OC | 5.8 µM | 4.7 µM | 45 µmol/kg | 0.53 | 0.3 | 30% | 3.83 |
| COc1cccc([C@@H]2CC(c3sc(-c4ccccc4)nc3C)=NN2c2ccc(S(C)(=O)=O)cc2)c1OC | 6.5 µM | 5.6 µM | 70 µmol/kg | 0.25 | 0.4 | 20% | 2.65 |
| COC(=O)c1cc(-c2sc(-c3ccccc3)nc2C)nn1-c1ccc(S(N)(=O)=O)cc1 | 6.5 µM | 6.02 µM | 74 µmol/kg | 0.17 | 0.5 | 20% | 2.67 |
| COc1cc([C@@H]2CC(c3sc(-c4ccccc4)nc3C)=NN2c2ccc(S(C)(=O)=O)cc2)cc(OC)c1OC | 7.5 µM | 6.4 µM | 87 µmol/kg | 0.18 | 0.6 | 20% | 2.78 |
| COc1cc(/C=C/C(=O)c2sc(-c3ccccc3)nc2C)cc(OC)c1OC | 6.7 µM | 5.8 µM | 45 µmol/kg | 0.52 | 0.4 | 30% | 3.92 |
| COC(=O)c1cc(-c2sc(-c3ccccc3)nc2C)nn1-c1ccc(S(C)(=O)=O)cc1 | 6.8 µM | 5.9 µM | 90 µmol/kg | 0.28 | 0.2 | 20% | 2.48 |
| CC(=O)Oc1ccccc1C(=O)O [ASPIRIN] | – | – | 714 µmol/kg | – | – | – | – |
| Cc1ccc(-c2cc(C(F)(F)F)nn2-c2ccc(S(N)(=O)=O)cc2)cc1 [CELECOXIB] | – | – | 47 µmol/kg | 0.5 | 0.4 | 20% | 2.9 |
| Cc1ccc(Cl)c(Nc2ccccc2C(=O)O)c1Cl [MECLOFENAMATE SODIUM] | – | 5.64 µM | – | – | – | – | – |
